Test results taken from patent publication US20110039763A1, “TARGETED ANTIMICROBIAL MOIETIES” (C3 JIAN, INC., priority 2009, published 2011).
“Also recorded” adds a separate entry of the source.

Columns and labels:
[1] = test system: microorganisms; experiment: Morphology, biofilm and growth disrupting peptides (Table 5); type: cell-based; set-up: key: A: Peptide aggregates; B: Less hyphal formation; Clumps; Diffuse clumps and small polyps; F: Diffuse growth; H: Thin; I: Growth inhibition; Microcolony formation; Rippled; Small polyps; Thick; W: Halo formation on top, microlonies on bottom
Text: In certain embodiments peptides that induce alterations in phenotype or other biological activities can also be used as antimicrobial effector moieties.

[2] = test system: microorganisms; experiment: Targeting peptide binding to target microorganisms (Tables 3, 10, 12); conditions: microorganism(s) the targeting peptide binds; binding in aqueous buffers varied with peptide solubility, preferably 1x PBS
[3] = test system: microorganisms; experiment: Peptide activities: targeting/binding, antimicrobial, growth or phenotype altering (Tables 7, 8); type: cell-based; conditions: peptides having multiple activities

PF-406: peptide having multiple activities (chain 1 YLEMNADYLSNMDIFDELWEKYLENNK; chain 2 YLEMNADYLSNMDIFDELWEKYLENNK; Peptide with targeting and/or antimicrobial activity)
Organism, effect: MRSA ([1]; MRSA): MRSA (M)
Organism, effect: S. epidermidis ([1]; S. epidermidis): S. epidermidis (C)
Target(s) [2]: E. coli; also recorded: C. jejuni
Activities [3]: G B

PF-408: peptide having multiple activities (chain 1 YCVPLGNMGNMNNKIW; chain 2 YCVPLGNMGNMNNKIW; Peptide with targeting and/or antimicrobial activity)
Organism, effect: MRSA ([1]; MRSA): MRSA (M)
Organism, effect: S. epidermidis ([1]; S. epidermidis): S. epidermidis (M)
Target(s) [2]: S. epidermidis and E. coli and P. aeruginosa and MRSA and E. faecalis and C. jeikeium and C. jejuni
Activities [3]: G B

PF-413: peptide having multiple activities (chain 1 TFAGSIKIGVPDLVHVTFNCKR; chain 2 TFAGSIKIGVPDLVHVTFNCKR; Peptide with targeting and/or antimicrobial activity)
Organism, effect: E. coli ([1]; E. coli): E. coli (S)
Organism, effect: MRSA ([1]; MRSA): MRSA (C)
Organism, effect: S. epidermidis ([1]; S. epidermidis): S. epidermidis (C)
Target(s) [2]: P. aeruginosa; also recorded: C. albicans; also recorded: C. jejuni
Activities [3]: G B

PF-414: peptide having multiple activities (chain 1 LLNKKLE; chain 2 LLNKKLE; Peptide with targeting and/or antimicrobial activity)
Organism, effect: S. pneumoniae ([1]; S. pneumoniae): S. pneumoniae (H)
Target(s) [2]: E. coli; also recorded: C. albicans; also recorded: C. jeikeium
Activities [3]: G B

PF-416: peptide having multiple activities (chain 1 SKAGLYGKIERSDKRE; chain 2 SKAGLYGKIERSDKRE; Peptide with targeting and/or antimicrobial activity)
Organism, effect: S. pneumoniae ([1]; S. pneumoniae): S. pneumoniae (H)
Target(s) [2]: S. pneumoniae; also recorded: C. jeikeium
Activities [3]: G B

PF-417: peptide having multiple activities (chain 1 DSYFRS; chain 2 DSYFRS; Peptide with targeting and/or antimicrobial activity)
Organism, effect: MRSA ([1]; MRSA): MRSA (M)
Organism, effect: S. epidermidis ([1]; S. epidermidis): S. epidermidis (M)
Organism, effect: S. pneumoniae ([1]; S. pneumoniae): S. pneumoniae (M)
Target(s) [2]: S. epidermidis; also recorded: C. jeikeium; also recorded: C. jejuni
Activities [3]: G B

PF-421: peptide having multiple activities (chain 1 KHCFEITDKTDVV; chain 2 KHCFEITDKTDVV; Peptide with targeting and/or antimicrobial activity)
Organism, effect ([1]; S. pneumoniae): S. pneumoniae (H)
Target(s) [2]: C. jeikeium
Activities [3]: G B

PF-423: peptide having multiple activities (chain 1 AGKKERLLSFREQFLNKNKKK; chain 2 AGKKERLLSFREQFLNKNKKK; Peptide with targeting and/or antimicrobial activity)
Organism, effect ([1]; S. pneumoniae): S. pneumoniae (H)
Target(s) [2]: S. epidermidis; also recorded: M. luteus; also recorded: E. coli; also recorded: S. pneumoniae; also recorded: E. faecalis; also recorded: C. jeikeium
Activities [3]: G B

PF-424: peptide having multiple activities (chain 1 IAAFVTSRAFSDTVSPI; chain 2 IAAFVTSRAFSDTVSPI; Peptide with targeting and/or antimicrobial activity)
Organism, effect ([1]; S. pneumoniae): S. pneumoniae (H)
Target(s) [2]: S. epidermidis and C. albicans and MRSA
Activities [3]: G B

PF-425: peptide having multiple activities (chain 1 MMELVLKTIIGPIVVGVVLRIVDKWLNKDK; chain 2 MMELVLKTIIGPIVVGVVLRIVDKWLNKDK; Peptide with targeting and/or antimicrobial activity)
Organism, effect ([1]; C. albicans): C. albicans (A)
Organism, effect ([1]; C. jejuni): C. jejuni (D)
Organism, effect ([1]; E. coli): E. coli (C)
Organism, effect ([1]; E. faecalis): E. faecalis (D)
Organism, effect ([1]; MRSA): MRSA (D)
Organism, effect ([1]; P. aeruginosa): P. aeruginosa (A)
Organism, effect ([1]; S. epidermidis): S. epidermidis (D)
Organism, effect ([1]; S. pneumoniae): S. pneumoniae (D)
Target(s) [2]: S. epidermidis and M. luteus and E. coli and P. aeruginosa and C. albicans and MRSA and S. pneumoniae and C. jeikeium
Activities [3]: G B

PF-426: peptide having multiple activities (chain 1 MLQKYTQMISVTKCIITKNKKTQENVDAYN; chain 2 MLQKYTQMISVTKCIITKNKKTQENVDAYN; Peptide with targeting and/or antimicrobial activity)
Organism, effect ([1]; C. albicans): C. albicans (A)
Organism, effect ([1]; C. jejuni): C. jejuni (D)
Organism, effect ([1]; E. coli): E. coli (C)
Organism, effect ([1]; E. faecalis): E. faecalis (D)
Organism, effect ([1]; MRSA): MRSA (D)
Organism, effect ([1]; S. epidermidis): S. epidermidis (D)
Organism, effect ([1]; S. pneumoniae): S. pneumoniae (D)
Target(s) [2]: S. epidermidis and E. coli and P. aeruginosa and C. albicans and MRSA and S. pneumoniae and E. faecalis and C. jeikeium
Activities [3]: G B

PF-427: peptide having multiple activities (chain 1 YVLEYHGLRATQDVDAFMAL; chain 2 YVLEYHGLRATQDVDAFMAL; Peptide with targeting and/or antimicrobial activity)
Organism, effect ([1]; E. coli): E. coli (C)
Organism, effect ([1]; E. faecalis): E. faecalis (C)
Organism, effect ([1]; MRSA): MRSA (C)
Organism, effect ([1]; S. pneumoniae): S. pneumoniae (R)
Target(s) [2]: M. luteus; also recorded: P. aeruginosa; also recorded: C. albicans; also recorded: C. jejuni
Activities [3]: G B

PF-428: peptide having multiple activities (chain 1 ENEESIF; chain 2 ENEESIF; Peptide with targeting and/or antimicrobial activity)
Organism, effect ([1]; S. pneumoniae): S. pneumoniae (H)
Target(s) [2]: S. epidermidis; also recorded: C. albicans; also recorded: E. faecalis; also recorded: C. jeikeium
Activities [3]: G B

PF-429: peptide having multiple activities (chain 1 AATLICVGSGIMSSL; chain 2 AATLICVGSGIMSSL; Peptide with targeting and/or antimicrobial activity)
Organism, effect ([1]; E. faecalis): E. faecalis (C)
Organism, effect ([1]; MRSA): MRSA (C)
Organism, effect ([1]; S. epidermidis): S. epidermidis (C)
Organism, effect ([1]; S. pneumoniae): S. pneumoniae (M)
Target(s) [2]: S. epidermidis; also recorded: S. pneumoniae; also recorded: C. jeikeium
Activities [3]: G B

PF-430: peptide having multiple activities (chain 1 AVVCGYLAYTATS; chain 2 AVVCGYLAYTATS; Peptide with targeting and/or antimicrobial activity)
Organism, effect ([1]; MRSA): MRSA (M)
Organism, effect ([1]; S. epidermidis): S. epidermidis (M)
Organism, effect ([1]; S. pneumoniae): S. pneumoniae (M)
Target(s) [2]: S. epidermidis; also recorded: M. luteus; also recorded: E. coli; also recorded: S. pneumoniae; also recorded: E. faecalis; also recorded: C. jeikeium; also recorded: C. jejuni
Activities [3]: G B
